Results as given in article PMC2766550 (Peptides, 2009).
Square brackets hold non-standard residues; d marks the D form. Ends that are not written are not given here. Peptide text beside a SMILES is read from it. * marks the point of attachment. dPhe(F5) = N[C@H](Cc1c(F)c(F)c(F)c(F)c1F)C(=O)O; pGlu = O=C1CC[C@@H](C(=O)O)N1; Nle = CCCC[C@H](N)C(=O)O; βAla = NCCC(=O)O; NHPr = CCCN*

Tests used:
hBRS-3 receptor = target: T1, hBRS-3 receptor (Homo sapiens, UniProt P32247); assay: Whole cell radioligand binding, hBRS-3 transfected Balb 3T3 cells
T1 sequence (P32247 1-399): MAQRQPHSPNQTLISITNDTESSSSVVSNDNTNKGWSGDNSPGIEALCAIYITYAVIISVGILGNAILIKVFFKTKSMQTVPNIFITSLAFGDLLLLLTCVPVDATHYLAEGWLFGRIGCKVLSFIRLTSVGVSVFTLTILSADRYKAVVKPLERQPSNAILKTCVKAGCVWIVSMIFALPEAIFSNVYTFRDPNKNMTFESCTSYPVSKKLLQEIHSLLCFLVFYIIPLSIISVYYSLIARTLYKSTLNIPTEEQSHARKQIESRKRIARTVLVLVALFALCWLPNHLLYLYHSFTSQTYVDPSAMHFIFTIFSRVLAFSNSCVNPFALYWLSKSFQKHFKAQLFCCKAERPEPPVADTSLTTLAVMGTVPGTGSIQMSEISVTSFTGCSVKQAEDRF

hNMB-receptor [1] = target: T2, hNMB-receptor (Homo sapiens, UniProt P28336); assay: Whole cell radioligand binding, hNMB-receptor transfected Balb 3T3 cells; details: IC50 hNMB-R Balb-3T3, hNMB-receptor transfected Balb 3T3 cells; 125I-[D-Tyr0]NMB, 1 h, 22°C; mean ± S.E.
T2 sequence (P28336 whole entry): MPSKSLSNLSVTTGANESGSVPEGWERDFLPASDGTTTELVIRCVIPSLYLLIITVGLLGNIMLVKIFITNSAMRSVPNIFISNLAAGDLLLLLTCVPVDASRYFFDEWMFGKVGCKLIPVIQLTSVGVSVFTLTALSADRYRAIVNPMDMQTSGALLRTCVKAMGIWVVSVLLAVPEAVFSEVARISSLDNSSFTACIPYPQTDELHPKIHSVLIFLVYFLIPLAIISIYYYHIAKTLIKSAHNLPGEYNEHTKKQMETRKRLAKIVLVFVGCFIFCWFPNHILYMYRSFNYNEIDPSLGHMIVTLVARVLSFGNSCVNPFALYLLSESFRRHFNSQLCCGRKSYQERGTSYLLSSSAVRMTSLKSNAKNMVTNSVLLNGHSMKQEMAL

hGRP-receptor [2] = target: T3, hGRP-receptor (Homo sapiens, UniProt P30550); assay: Whole cell radioligand binding, HuTu-80 cells
T3 sequence (P30550 whole entry): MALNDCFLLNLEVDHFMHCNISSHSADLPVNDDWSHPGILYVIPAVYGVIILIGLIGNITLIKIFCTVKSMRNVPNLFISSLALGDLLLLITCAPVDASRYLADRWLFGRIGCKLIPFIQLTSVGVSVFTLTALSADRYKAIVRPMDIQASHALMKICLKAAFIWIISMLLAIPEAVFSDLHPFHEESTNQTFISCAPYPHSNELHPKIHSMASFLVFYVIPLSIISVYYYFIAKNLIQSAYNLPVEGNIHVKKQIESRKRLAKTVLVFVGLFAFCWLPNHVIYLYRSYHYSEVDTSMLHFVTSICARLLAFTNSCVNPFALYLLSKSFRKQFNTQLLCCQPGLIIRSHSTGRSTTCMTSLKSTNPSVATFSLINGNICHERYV

hNMB-receptor [3] = target: T2, hNMB-receptor; assay: Whole cell radioligand binding, hNMB-receptor transfected NCI-H1299 cells
hGRP-receptor [4] = target: T3, hGRP-receptor; assay: [3H]inositol phosphate generation, hGRP-receptor transfected Balb 3T3 cells; format: cell-based
hGRP-receptor [5] = target: T3, hGRP-receptor; assay: [3H]inositol phosphate generation, HuTu-80 cells; format: cell-based
hNMB-receptor [6] = target: T2, hNMB-receptor; assay: cell-based; details: for [3H]IP NCI-H1299 (hNMB-R) EC50: stimulation of [3H]IP generation
hGRP-receptor [7] = target: T3, hGRP-receptor; assay: Whole cell radioligand binding, hGRP-receptor transfected Balb 3T3 cells; details: b34 values for receptors expressed in Balb 3T3 cells

Molecule | fold lower affinity for hBRS3 than for the ligand's own receptor (hBRS-3 receptor) | IC50 (hNMB-receptor [1]) [µM] | IC50 (hBRS-3 receptor) [µM] | IC50 (hGRP-receptor [2]) [µM] | IC50 (hNMB-receptor [3]) [µM] | IC50 (hGRP-receptor [4]) [µM] | IC50 (hGRP-receptor [5]) [µM] | EC50 (hNMB-receptor [6]) [µM] | IC50 (hNMB-receptor [6]) [µM] | [3H]IP NCI-H1299 (hNMB-R) EC50 (hNMB-receptor [6]) | selectivity for hGRP-receptor over hNMB-receptor (binding affinities) (hGRP-receptor [7])
CSCC[C@H](NC(=O)[C@H](CC(C)C)NC(=O)[C@H](Cc1c[nH]cn1)NC(=O)CNC(=O)[C@@H](NC(=O)[C@H](C)NC(=O)[C@H](Cc1c[nH]c2ccccc12)NC(=O)[C@H](Cc1c[nH]cn1)NC(=O)[C@H](CC(N)=O)NC(=O)CNC(=O)[C@H](CCCNC(=N)N)NC(=O)[C@@H]1CCCN1C(=O)[C@H](Cc1ccc(O)cc1)NC(=O)[C@H](CCSC)NC(=O)[C@H](CCCCN)NC(=O)[C@@H](NC(=O)[C@H](CC(C)C)NC(=O)[C@@H](NC(=O)[C@@H](NC(=O)CNC(=O)CNC(=O)CNC(=O)[C@H](C)NC(=O)[C@@H]1CCCN1C(=O)[C@H](CC(C)C)NC(=O)[C@@H]1CCCN1C(=O)[C@@H](N)C(C)C)[C@@H](C)O)C(C)C)[C@@H](C)O)C(C)C)C(N)=O [GRP, gastrin-releasing peptide, reference compound] | > 10,000 fold | – | – | – | – | – | – | – | – | – | –
CC(C)C[C@H](NC(=O)[C@H](CC(C)C)NC(=O)[C@@H](Cc1ccccc1)NC(=O)CNC(=O)[C@@H](NC(=O)[C@H](C)NC(=O)[C@H](Cc1c[nH]c2ccccc12)NC(=O)[C@H](CCC(N)=O)NC(=O)[C@H](CC(N)=O)NC(=O)CNC(=O)[C@H](CC(C)C)NC(=O)[C@H](CCCNC(=N)N)NC(=O)[C@H](CCC(N)=O)NC(=O)[C@@H]1CCC(=O)N1)C(C)C)C(N)=O [Peptide 1, [D-Phe^12, Leu^14]Bn] ([pGlu]QRLGNQWAVG[dF]LL-NH2) | – | > 10 | > 10 | – | – | – | – | – | – | – | –
CSCC[C@H](NC(=O)[C@H](CC(C)C)NC(=O)[C@@H](Cc1ccccc1)NC(=O)CNC(=O)[C@@H](NC(=O)[C@H](C)NC(=O)[C@H](Cc1c[nH]c2ccccc12)NC(=O)[C@H](CCC(N)=O)NC(=O)[C@H](CC(N)=O)NC(=O)CNC(=O)[C@H](Cc1ccc(O)cc1)NC(=O)[C@H](CCCNC(=N)N)NC(=O)[C@H](CCC(N)=O)NC(=O)[C@@H]1CCC(=O)N1)C(C)C)C(N)=O [Peptide 2, [Tyr^4, D-Phe^12]Bn] | – | 3.09 ± 0.32 | > 10 | 0.912 ± 0.076 | 1.86 ± 0.06 | > 10 | 8.13 ± 0.226 | 0.103 ± 0.005 | – | – | –
CC(C)C[C@H](NC(=O)[C@H](CC(C)C)NC(=O)[C@@H](Cc1c[nH]c2ccccc12)NC(=O)[C@H](Cc1ccccc1)NC(=O)[C@@H](Cc1c[nH]c2ccccc12)NC(=O)[C@H](CCC(N)=O)NC(=O)[C@H](CCC(N)=O)NC(=O)[C@@H]1CCCN1C(=O)[C@H](CCCCN)NC(=O)[C@@H]1CCCN1C(=O)[C@H](N)CCCN=C(N)N)C(N)=O [Peptide 3, [D-Arg^1, D-Trp^7,9, Leu^11]SP] (H-[dR]PKPQQ[dW]F[dW]LL-NH2) | – | 4.48 ± 0.86 | > 10 | 1.78 ± 0.05 | 1.59 ± 0.03 | 1.58 ± 0.081 | 8.31 ± 0.154 | – | 2.34 ± 0.08 | – | –
CC(C)C[C@H](NC(=O)[C@H](CC(C)C)NC(=O)[C@@H](Cc1c[nH]c2ccccc12)NC(=O)[C@H](Cc1ccccc1)NC(=O)[C@@H](Cc1c[nH]c2ccccc12)NC(=O)[C@H](CCC(N)=O)NC(=O)[C@H](CCC(N)=O)NC(=O)[C@@H]1CCCN1C(=O)[C@H](CCCCN)NC(=O)[C@@H]1CCCN1C(=O)[C@H](N)CCCNC(=N)N)C(N)=O [Peptide 3, [D-Arg^1, D-Trp^7,9, Leu^11]SP] (H-[dR]PKPQQ[dW]F[dW]LL-NH2) | – | – | – | – | – | – | – | – | – | No act | –
CSCC[C@H](NC(=O)[C@@H](Cc1c[nH]c2ccccc12)NC(=O)[C@@H](Cc1c[nH]c2ccccc12)NC(=O)[C@H](Cc1ccccc1)NC(=O)[C@@H](Cc1c[nH]c2ccccc12)NC(=O)[C@H](CCC(N)=O)NC(=O)[C@H](CCC(N)=O)NC(=O)[C@H]1CCCN1)C(N)=O [Peptide 4, [D-Pro^4, D-Trp^7,9,10]SP-(4-11)] (H-[dP]QQ[dW]F[dW][dW]M-NH2) | – | > 10 | 2.3 ± 0.4 | > 10 | > 10 | > 3 | > 3 | – | 7.08 ± 0.344 | No act | –
CC(C)C[C@H](NC(=O)[C@H](Cc1cnc[nH]1)NC(=O)CNC(=O)[C@@H](NC(=O)[C@H](C)NC(=O)[C@H](Cc1c[nH]c2ccccc12)NC(=O)[C@H](CCC(N)=O)NC(=O)[C@H](N)Cc1ccccc1)C(C)C)C(N)=O [Peptide 8, [D-Phe^6]Bn(6-13)NH2] | – | > 10 | > 10 | 0.00493 ± 0.00039 | > 10 | 0.416 ± 0.008 | 0.398 ± 0.011 | – | > 10 | – | –
CCNC(=O)[C@H](CC(C)C)NC(=O)[C@H](Cc1c[nH]cn1)NC(=O)CNC(=O)[C@@H](NC(=O)[C@H](C)NC(=O)[C@H](Cc1c[nH]c2ccccc12)NC(=O)[C@H](CCC(N)=O)NC(=O)[C@H](N)Cc1ccccc1)C(C)C [Peptide 10, [D-Phe^6]Bn(6-13)Ethylamide] | – | > 10 | > 10 | 0.00222 ± 0.00013 | > 10 | 0.0525 ± 0.0043 | 0.0436 ± 0.0036 | – | – | – | –
CCCNC(=O)[C@H](CC(C)C)NC(=O)[C@H](Cc1c[nH]cn1)NC(=O)CNC(=O)[C@@H](NC(=O)[C@H](C)NC(=O)[C@H](Cc1c[nH]c2ccccc12)NC(=O)[C@H](CCC(N)=O)NC(=O)[C@H](N)Cc1ccccc1)C(C)C [Peptide 11, [D-Phe^6-Bn](6-13)Propylamide (PA)] | – | 2.44 ± 0.16 | 1.91 ± 0.3 | 0.00039 ± 0.00012 | 3.09 ± 0.07 | 0.031 ± 0.001 | 0.0363 ± 0.001 | – | – | – | ≥ 1,000 fold
CCCNC(=O)[C@H](CC(C)C)NC(=O)[C@H](Cc1c[nH]cn1)NC(=O)CNC(=O)[C@@H](NC(=O)[C@H](C)NC(=O)[C@H](Cc1c[nH]c2ccccc12)NC(=O)[C@H](CCC(N)=O)NC(=O)[C@H](N)Cc1ccc(O)cc1)C(C)C [Peptide 12, [D-Tyr^6]Bn-(6-13)Propylamide (PA)] | – | > 10 | 1.9 ± 0.3 | 0.00141 ± 6e-05 | > 10 | 0.275 ± 0.013 | 0.0407 ± 0.0014 | – | – | – | –
CCCNC(=O)[C@H](Cc1ccccc1)NC(=O)[C@H](Cc1c[nH]cn1)NC(=O)CNC(=O)[C@@H](NC(=O)[C@H](C)NC(=O)[C@H](Cc1c[nH]c2ccccc12)NC(=O)[C@H](CCC(N)=O)NC(=O)[C@H](N)Cc1ccccc1)[C@@H](C)O [Peptide 13, [D-Phe^6,Thr^10, Phe^13]Bn(6-13)PA] (H-[dF]QWATGHF-NHPr) | – | 1.32 ± 0.03 | > 10 | – | – | – | – | – | – | – | –
CCCCNC(=O)[C@H](CC(C)C)NC(=O)[C@H](Cc1c[nH]cn1)NC(=O)CNC(=O)[C@@H](NC(=O)[C@H](C)NC(=O)[C@H](Cc1c[nH]c2ccccc12)NC(=O)[C@H](CCC(N)=O)NC(=O)[C@H](N)Cc1ccccc1)C(C)C [Peptide 14, [D-Phe^6]Bn(6-13)Butylamide (BA)] | – | 3.11 ± 0.16 | 0.692 ± 0.027 | 0.00102 ± 9e-05 | 1.78 ± 0.03 | 0.0213 ± 0.0016 | 0.0155 ± 0.002 | – | – | – | –
CCCCCCNC(=O)[C@H](CC(C)C)NC(=O)[C@H](Cc1cnc[nH]1)NC(=O)CNC(=O)[C@@H](NC(=O)[C@H](C)NC(=O)[C@H](Cc1c[nH]c2ccccc12)NC(=O)[C@H](CCC(N)=O)NC(=O)[C@H](N)Cc1ccccc1)C(C)C [Peptide 15, [D-Phe^6]Bn-(6-13)Hexylamide] | – | 8.14 ± 0.4 | 3.25 ± 0.06 | 0.00219 ± 4e-05 | > 10 | 0.38 ± 0.031 | 0.204 ± 0.014 | – | – | – | –
CCCCCCCNC(=O)[C@H](CC(C)C)NC(=O)[C@H](Cc1c[nH]cn1)NC(=O)CNC(=O)[C@@H](NC(=O)[C@H](C)NC(=O)[C@H](Cc1c[nH]c2ccccc12)NC(=O)[C@H](CCC(N)=O)NC(=O)[C@H](N)Cc1ccccc1)C(C)C [Peptide 16, [D-Phe^6]Bn(6-13)Heptylamide] | – | 6.1 ± 0.63 | > 10 | – | – | – | – | – | – | – | –
COC(=O)[C@H]1CCCN1C(=O)[C@H](Cc1c[nH]cn1)NC(=O)[C@@H](C)NC(=O)[C@@H](NC(=O)[C@H](C)NC(=O)[C@H](Cc1c[nH]c2ccccc12)NC(=O)[C@H](Cc1c[nH]cn1)NC(=O)[C@H](N)Cc1c(F)c(F)c(F)c(F)c1F)C(C)C [Peptide 19, [D-F-5-Phe^6, His^7, D-Ala^11, D-Pro^13]Bn(6-13)ME] (H-[dPhe(F5)]HWAV[dA]H[dP]-OMe) | – | > 10 | > 10 | – | – | – | – | – | – | – | –
CCCC[C@H](NC(=O)[C@H](Cc1ccccc1)NC(=O)[C@H](Cc1cnc[nH]1)NC(=O)CCNC(=O)[C@@H](NC(=O)[C@H](C)NC(=O)[C@H](Cc1c[nH]c2ccccc12)NC(=O)[C@H](CCC(N)=O)NC(=O)[C@H](N)Cc1ccc(O)cc1)C(C)C)C(N)=O [Peptide 35, [D-Tyr^6, β-Ala^11,Phe^13, Nle^14]Bn-(6-14), reference compound] (H-[dY]QWAV[βAla]HF[Nle]-NH2) | – | 0.00031 ± 1e-05 | 0.00055 ± 3e-05 | – | – | – | – | – | – | – | –
NQWAVGHL-NH2 [Peptide 9, Bn(6-13)NH2] | – | > 10 | > 10 | – | – | – | – | – | – | – | –
